Here are results for 2 molecules from publication PMC6265302, “Widespread bacterial lysine degradation proceeding via glutarate and L-2-hydroxyglutarate” (Nature Communications, 2018).

Experiment [1] addresses T1, CsiD (Escherichia coli, UniProt P76621).
T1 construct: gene glaH; full ORF, N-terminal 6xHis tag (pET28a), expressed in E. coli BL21(DE3); Fe(II); homotetramer
T1 sequence (P76621 1-325): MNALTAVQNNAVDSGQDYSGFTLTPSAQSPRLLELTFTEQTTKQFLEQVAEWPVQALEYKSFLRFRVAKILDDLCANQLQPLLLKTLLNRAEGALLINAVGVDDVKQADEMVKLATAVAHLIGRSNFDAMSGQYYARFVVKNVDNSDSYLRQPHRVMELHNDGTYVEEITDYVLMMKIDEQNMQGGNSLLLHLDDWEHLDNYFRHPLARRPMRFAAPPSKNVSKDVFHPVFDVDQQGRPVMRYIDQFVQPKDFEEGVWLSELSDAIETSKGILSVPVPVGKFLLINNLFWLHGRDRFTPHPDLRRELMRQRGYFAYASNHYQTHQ
Briefly: CsiD activity assay, product inhibition. The format is biochemical. Particulars: reaction product.

The target of experiment [2] is T2, CsiR (Escherichia coli, UniProt P37338).
T2 construct: gene glaR; full ORF, N-terminal 6xHis tag (pET28a), expressed in E. coli BL21(DE3)
T2 sequence (P37338 1-220): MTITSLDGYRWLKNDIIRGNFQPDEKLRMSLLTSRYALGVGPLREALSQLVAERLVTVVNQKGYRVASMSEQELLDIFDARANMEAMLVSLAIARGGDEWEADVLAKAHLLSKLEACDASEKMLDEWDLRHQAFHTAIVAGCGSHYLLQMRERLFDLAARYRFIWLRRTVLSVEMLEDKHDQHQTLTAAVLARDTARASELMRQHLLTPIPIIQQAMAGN
Briefly: filter binding assay with […]-labelled csiD promoter DNA. Conditions: 1 mM ligand, Tris-HCl pH 7.6, 5 mM MgCl2; allosteric relief of DNA binding.

As to `O=C(O)CC[C@H](O)C(=O)O` [L-2-hydroxyglutarate], the weak inhibition result in experiment [1] is given as “We did observe weak inhibition of CsiD by its product L2HG”.

On to `O=C(O)CCCC(=O)O` [glutarate], for which the “reduced DNA binding at 1 mM” value in experiment [2] is reported as “repressive effect at the csiD promoter site is specifically relieved upon GA binding”.
